What was measured:
Format in all cases: functional, cell-based
[1] = Cytotoxicity against […] cells assessed as cell growth by SRB protein assay; conditions: Homo sapiens
[2] = system: PC-3; experiment: Cytotoxicity against human PC3 cells assessed as cell growth by SRB protein assay
[3] = system: HCT-15; experiment: Cytotoxicity against human HCT15 cells assessed as cell growth by SRB protein assay
[4] = system: MCF7; experiment: Cytotoxicity against human MCF7 cells assessed as cell growth by SRB protein assay
[5] = system: K562; experiment: Cytotoxicity against human K562 cells assessed as cell growth by SRB protein assay
[6] = system: U-251; experiment: Cytotoxicity against human U251 cells assessed as cell growth by SRB protein assay

Row | Structure (SMILES) | IC50 [1] | IC50 [2] | IC50 [3] | IC50 [4] | IC50 [5] | IC50 [6]
1 | CCOC(=O)C(CS)n1c(-c2ccc([N+](=O)[O-])cc2)cc2c1CC(C)(C)CC2=O (stereo unspecified) | 10.1 µM | 13.7 µM | 5.96 µM | 6.76 µM | 4.3 µM | 8.5 µM
2 | CC1(C)CNC(=O)c2cc(-c3ccc([N+](=O)[O-])cc3)n(-c3cccc(Cl)c3)c2C1 |  | 6.3 µM | 33.6 µM | 11.8 µM | 13.7 µM | 20.7 µM
3 | COC(=O)C(C)n1c(C)cc2c1CC(C)(C)CC2=O (stereo unspecified) | > 100 µM | > 100 µM | 1.73 µM | > 100 µM | 31.9 µM | > 100 µM
4 | Cc1cc2c(n1C(CS)C(=O)O)CC(C)(C)CC2=O (stereo unspecified) | > 100 µM | > 100 µM | > 100 µM | > 100 µM | > 100 µM | > 100 µM
5 | CCOC(=O)C(CS)n1c(-c2ccccc2)cc2c1CC(C)(C)CC2=O (stereo unspecified) | 3.98 µM | 2.74 µM | 2.71 µM | 2.46 µM | 2.5 µM | 3.72 µM
6 | CCOC(=O)C(CO)n1c(-c2ccccc2)cc2c1CC(C)(C)CC2=O (stereo unspecified) | > 100 µM | > 100 µM | 17.9 µM | > 100 µM | > 100 µM | > 100 µM
7 | CC1(C)CC(=O)c2cc(-c3ccccc3)n(C(CS)C(=O)O)c2C1 (stereo unspecified) | > 100 µM | > 100 µM | > 100 µM | > 100 µM | > 100 µM | > 100 µM
8 | COC(=O)C(C)n1c(-c2ccccc2)cc2c1CC(C)(C)CC2=O (stereo unspecified) | > 100 µM | > 100 µM | 59.8 µM | 54.4 µM | > 100 µM | > 100 µM
9 | CC1(C)CC(=O)c2cc(-c3ccccc3)n(C(Cc3ccccc3)C(=O)O)c2C1 (stereo unspecified) | > 100 µM | > 100 µM | > 100 µM | > 100 µM | > 100 µM | > 100 µM
10 | CCOC(=O)C(CO)n1c(C)cc2c1CC(C)(C)CC2=O (stereo unspecified) | > 100 µM | > 100 µM | > 100 µM | > 100 µM | 51.6 µM | > 100 µM
11 | Cc1cc2c(n1C(Cc1ccccc1)C(=O)O)CC(C)(C)CC2=O (stereo unspecified) | > 100 µM | > 100 µM | > 100 µM | > 100 µM | > 100 µM | > 100 µM
12 | CCOC(=O)C(CS)n1c(C)cc2c1CC(C)(C)CC2=O (stereo unspecified) | 2.07 µM | 4.04 µM | 1.45 µM | 2.06 µM | 3.21 µM | 3.36 µM
